{
  "source": "patent US10383338B2",
  "about": "“Compositions and methods for making and using hydrolytic enzymes for degrading polysaccharides made by foodborne pathogenic bacteria” (University of Wyoming, priority 2014, dated 2019)",
  "key": {"L. monocytogenes": {"test_system": "L. monocytogenes", "type": "cell-based", "details": "1600 ppm, 10 min, room temperature; for killing of wild-type strain EGD-e: HTM-grown culture", "protocol": "Here, the role of L. monocytogenes EPS in providing tolerance to disinfection and desiccation was evaluated. […] To distinguish between the contribution of EPS versus EPS-independent c-di-GMP-responsive agents, included in the tests were the ΔpdeB/C/D ΔpssC mutant characterized by elevated intracellular c-di-GMP levels but defective in EPS production.\nCultures were grown in HTM with 3% glucose at 37° C. for 24 h, at which point small uniform clumps are formed by the ΔpdeB/C/D strain. Aliquots (250 μl; 10^8 cfu/ml) of these cultures were mixed with disinfectants at 1:1 vol ratios in small glass tubes that also contained 0.1 g of acid washed glass beads (Sigma Life Sciences). Following a 10-min exposure to disinfectants at room temperature, D/E neutralizing broth (500 μl; Difco) was added. Samples were vigorously vortexed (for 5 min) and clumps of the ΔpdeB/C/D strain were dispersed due to the action of the glass beads. Serial dilutions were plated on BHI agar and colonies were counted following a 48-h incubation at 37° C."}, "[1]": {"test_system": "wild-type L. monocytogenes EGD-e", "test": "Disinfection tolerance, wild-type strain", "type": "cell-based, Listeria monocytogenes", "details": "sodium hypochlorite 1600 ppm, 10 min, room temperature; HTM-grown cultures", "method": "FIGS. 6A-6D: Role of the c-di-GMP-induced EPS in biofilm formation, cell aggregation, and tolerance of L. monocytogenes to disinfectants and desiccation. […] Cultures were grown for 6 days at 30° C. in LB (top panel) or LB supplemented with 3% glycerol (bottom panel). Shown are average results from two biological replicates, where each strain was grown in six wells in a replicate (i.e., six technical replicates). Black circle, wild type; red square, ΔpdeB/C/D; green triangle, ΔpdeB/C/D ΔpssC; blue cross, ΔpdeB/C/D ΔpssE. […] Overnight cultures grown in BHI were inoculated into HTM liquid medium at A600 of 0.01 and incubated at 30° C. with gentle shaking (rotary shaker, 125 rpm) for 48 h. 1, ΔpdeB/C/D; 2, wild type; 3, ΔpdeB/C/D ΔpssC; 4, ΔpdeB/C/D ΔpssE. […] Aliquots of the HTM-grown cultures were mixed with disinfectant solutions for 10 min at room temperature. […]\nEPS is known to protect bacteria from environmental insults. Here, the role of L. monocytogenes EPS in providing tolerance to disinfection and desiccation was evaluated. […]\nSolutions of sodium hypochlorite, hydrogen peroxide, and benzalkonium chloride (Sigma-Aldrich and Sigma Life Sciences) were prepared in sterile phosphate-buffered saline with disinfection concentrations of 1600 ppm, 200 mM, and 100 ppm, respectively. […] Serial dilutions were plated on BHI agar and colonies were counted following a 48-h incubation at 37° C."}},
  "note": "Read-outs that look alike come from different tables or passages of the source.",
  "data": [
    {"smiles": "OCl", "note": "[sodium hypochlorite]", "values": [
      {"measurement": "survival of EPS producing ΔpdeB/C/D mutant relative to wild type", "setting": "L. monocytogenes", "result": "> 10^6 fold"},
      {"measurement": "killing of wild-type strain EGD-e", "setting": "L. monocytogenes", "result": "highly effective in killing the wild-type strain"},
      {"measurement": "killing of wild-type strain EGD-e", "setting": "L. monocytogenes; listed as SH", "result": "lack of survivors"},
      {"measurement": "killing / survivors after disinfectant treatment", "setting": "[1]", "result": "highly effective in killing"}
    ]}
  ]
}
